According to patent US9260382B2, “Methods of reducing virulence in bacteria” (priority 2010, dated 2016):

System: hrpA promoter (T3SS)
Assay: hrpA promoter-probe phrpA in Erwinia amylovora 273, flow cytometry
Format: cell-based
Settings: Ea273 (phrpA), HIM + 100 μM compound
Method: Wild-type Erwinia amylovora 273 was used in this study. The promoter-probe plasmid phrpA was constructed as follows. The hrpA promoter region of Erwinia amylovora 273 was amplified and cloned into pPROBE-NT to produce PhrpA. Plasmid PhrpA was electroporated into Erwinia amylovora 273. Expression of hrpA was analyzed using a FACS Calibur flow cytometer (BD Biosciences, CA). Wild-type Erwinia amylovora 273 containing phrpA was cultured in a hrp-inducing medium (HIM) containing dimethyl sulfoxide (DMSO; solvent of chemical compounds), or HIM supplemented with 100 μM of each compound, and promoter activity was assessed at 6 h and 9 h by measuring GFP intensity using flow cytometry (Table 19).

| SMILES | Avg MFI ± SD, hrpA expression (6 h) | Avg MFI ± SD, hrpA expression (9 h) |
| --- | --- | --- |
| O=C(O)[C@@H]1C[C@H]1c1ccccc1 (relative stereo) [Compound 010, trans-2-Phenylcyclopropane-1-carboxylic acid] | 336.7 ± 28.1 | 293.0 ± 4.7 |
| O=C(NO)[C@@H]1C[C@H]1c1ccccc1 (relative stereo) [Compound 162, trans-2-Phenylcyclopropane-1-carbohydroxamic acid] | 711.1 ± 2.8 | 701.9 ± 2.8 |
| O=C(O)/C=C/c1ccc(O)cc1O [Compound 002, 2,4-Dihydroxycinnamic acid] | 1365.3 ± 104.9 | 1479.8 ± 72.9 |
| O=C(O)/C=C/c1ccc(O)c(O)c1 [Compound 003, 3,4-Dihydroxycinnamic acid] | 783.4 ± 80.2 | 787.3 ± 25.2 |
| O=C(O)/C=C/c1cccc(O)c1 [Compound 005, meta-coumaric acid] | 1212 ± 47.6 | 1439.1 ± 97.9 |
| O=C(O)CCc1ccc(O)cc1 [Compound 007, 3-(4-Hydroxyphenyl)propionic acid] | 1093.1 ± 62.8 | 1211.0 ± 58.7 |
| O=C(O)CCc1ccccc1 [Compound 008, Hydrocinnamic acid] | 395.9 ± 16.0 | 342.0 ± 11.7 |
| O=C(O)COc1ccccc1 [Compound 009, Phenoxyacetic acid] | 342.7 ± 24.8 | 269.9 ± 15.2 |
| O=C(O)/C=C/c1cccs1 [Compound 011, trans-3-(2-Thienyl)acrylic acid] | 230.1 ± 5.8 | 167.3 ± 8.2 |
| O=C(O)/C=C/c1c[nH]c2ccccc12 [Compound 012, trans-3-Indoleacrylic acid] | 33.7 ± 8.9 | 47.9 ± 6.9 |
| O=C(O)/C=C/c1cccnc1 [Compound 013, trans-3-(3-Pyridyl)acrylic acid] | 468.3 ± 7.7 | 245.7 ± 3.1 |
| O=C(O)/C=C/c1c[nH]cn1 [Compound 014, trans-3-(4-Imidazolyl)acrylic acid] | 874.6 ± 23.1 | 839.2 ± 17.6 |
| COc1ccccc1/C=C/C(=O)O [Compound 015, trans-2-Methoxycinnamic acid] | 342.6 ± 7.0 | 255.1 ± 1.7 |
| COc1cccc(/C=C/C(=O)O)c1 [Compound 016, trans-3-Methoxycinnamic acid] | 265.3 ± 24.4 | 198.5 ± 20.0 |
| COc1ccc(/C=C/C(=O)O)cc1 [Compound 017, trans-4-Methoxycinnamic acid] | 132.5 ± 5.5 | 76.4 ± 2.7 |
| Cc1ccccc1/C=C/C(=O)O [Compound 018, trans-2-Methylcinnamic acid] | 303.8 ± 8.7 | 262.5 ± 9.3 |
| Cc1cccc(/C=C/C(=O)O)c1 [Compound 019, trans-3-Methylcinnamic acid] | 311.5 ± 18.6 | 251.6 ± 13.3 |
| Cc1ccc(/C=C/C(=O)O)cc1 [Compound 020, trans-4-Methylcinnamic acid] | 208.5 ± 2.7 | 145.4 ± 3.7 |
| O=C(O)/C=C/c1ccccc1Cl [Compound 021, trans-2-Chlorocinnamic acid] | 225.7 ± 35.8 | 192.7 ± 8.6 |
| O=C(O)/C=C/c1cccc(Cl)c1 [Compound 022, trans-3-Chlorocinnamic acid] | 332.9 ± 16.9 | 238.3 ± 8.7 |
| O=C(O)/C=C/c1ccc(Cl)cc1 [Compound 023, trans-4-Chlorocinnamic acid] | 171.8 ± 7.7 | 125.8 ± 3.9 |
| O=C(O)/C=C/c1ccccc1C(=O)O [Compound 024, trans-2-Carboxycinnamic acid] | 361.1 ± 76.1 | 332.2 ± 19.6 |

| SMILES | Avg MFI ± SD, hrpA expression (6 h) | Avg MFI ± SD, hrpA expression (9 h) |
| --- | --- | --- |
| O=C(O)/C=C/c1ccc(C(=O)O)cc1 [Compound 025, trans-4-Carboxycinnamic acid] | 421.0 ± 10.6 | 496.7 ± 98.9 |
| O=C(O)/C=C/c1ccc(S)cc1 [Compound 026, trans-4-Mercaptocinnamic acid] | 159.7 ± 22.0 | 44.7 ± 2.7 |
| O=C(O)/C=C/c1ccc([N+](=O)[O-])cc1 [Compound 028, trans-4-Nitrocinnamic acid] | 14.4 ± 16.9 | 4.0 ± 0.3 |
| O=Cc1ccc(/C=C/C(=O)O)cc1 [Compound 029, trans-4-Formlycinnamic acid] | 285.1 ± 40.8 | 218.3 ± 9.9 |
| COC(=O)/C=C/c1ccccc1 [Compound 030, Methyl trans-cinnamate] | 674.8 ± 252.1 | 668.5 ± 31.2 |
| NC(=O)/C=C/c1ccccc1 [Compound 031, trans-Cinnamamide] | 98.0 ± 18.4 | 88.1 ± 4.6 |
| O=C(O)/C=C/c1ccc2ccccc2c1 [Compound 035, 3-(2-naphthyl) acrylic acid] | 178.9 ± 9.7 | 89.0 ± 6.2 |
| O=C(/C=C/c1ccc(Br)cc1)NO [Compound 128, trans-4-Bromocinnamohydroxamic acid] | 17.6 ± 2.8 | 5.7 ± 2.2 |
| O=C(/C=C/c1ccccc1O)NO [Compound 129, trans-2-Hydroxycinnamohydroxamic acid] | 187.9 ± 1.2 | 181.0 ± 0.7 |
| O=C(/C=C/c1cccc(O)c1)NO [Compound 130, trans-3-Hydroxycinnamohydroxamic acid] | 431.4 ± 4.1 | 491.0 ± 10.2 |
| NNC(=O)/C=C/c1ccc(O)cc1 [Compound 133, trans-3-(4-Hydroxyphenyl)acrylohydrazid] | 1716.5 ± 33.1 | 2780.9 ± 58.5 |
| O=C(NO)c1ccccc1O [Compound 135, Salicylhydroxamic acid] | 124.7 ± 7.7 | 147.8 ± 4.3 |
| O=C(O)C#Cc1ccccc1 [Compound 136, Phenylpropiolic acid] | 261.7 ± 1.0 | 307.0 ± 9.3 |
| O=C(/C=C/c1ccc(O)cc1)NCCO [Compound 138, N-(2-Hydroxyethyl)-4-hydroxycinnamamide] | 1474.5 ± 30.4 | 1907.0 ± 39.8 |
| O=C(CCc1ccccc1)NO [Compound 139, 3-Phenylpropionohydroxamic acid] | 306.3 ± 11.9 | 286.3 ± 10.0 |
| O=C(/C=C/c1ccc(-c2ccccc2)cc1)NO [Compound 140, trans-4-Phenylcinnamohydroxamic acid] | 101.7 ± 17.1 | 82.8 ± 4.3 |
| O=C(/C=C/c1ccc(F)cc1)NO [Compound 141, trans-4-Fluorocinnamohydroxamic acid] | 167.6 ± 4.7 | 119.0 ± 7.1 |
| Cc1ccc(/C=C/C(=O)NO)cc1 [Compound 142, trans-4-Methylcinnamohydroxamic acid] | 126.2 ± 5.6 | 106.0 ± 13.6 |
| O=C(COc1ccccc1)NO [Compound 143, 2-Phenoxyacetohydroxamic acid] | 228.7 ± 4.6 | 178.5 ± 27.1 |
| O=C(O)c1ccc(O)cc1 [Compound 144, 4-Hydroxybenzoic acid] | 434.4 ± 22.1 | 424.7 ± 24.8 |
| O=C(O)c1cccc(O)c1 [Compound 145, 3-Hydroxybenzoic acid] | 559.4 ± 23.6 | 529.9 ± 32.0 |
| O=Cc1ccc(/C=C/C(=O)NO)cc1 [Compound 146, trans-4-Formylcinnamohydroxamic acid] | 414.3 ± 31.6 | 435.2 ± 36.2 |
